Reference: the NIST ThermoML archive (doi:10.1021/je400415r)

Test: mn = molality of the nth substance listed, in mol/kg
Conditions: 101 kPa, Liquid; for speed of sound: Pulse-echo method; for mass density: Vibrating tube method

CCC(N)C(=O)O (stereo not drawn) [(.+-.)-α-aminobutyric acid] + O
Conditions	mass density, 288.15 K [kg/m3]	mass density, 298.15 K [kg/m3]	mass density, 308.15 K [kg/m3]	mass density, 318.15 K [kg/m3]	speed of sound, 288.15 K [m/s]	speed of sound, 298.15 K [m/s]	speed of sound, 308.15 K [m/s]	speed of sound, 318.15 K [m/s]
m1 = 0.04996	1000.54	998.441	995.405	991.565	1470.8	1500.8	1523.5	1539.8
m1 = 0.1498	1003.36	1001.19	998.105	994.226	1479.5	1508.9	1530.9	1546.7
m1 = 0.2141	1005.15	1002.92	999.815	995.911	1485.2	1513.8	1535.7	1551.1
m1 = 0.4366	1011.15	1008.79	1005.56	1001.57	1504.2	1531.5	1551.8	1566
m1 = 0.6599	1016.91	1014.4	1011.06	1006.99	1522.7	1548.4	1567.4	1580.5
m1 = 0.8834	1022.42	1019.77	1016.34	1012.18	1540.7	1564.9	1582.6	1594.5
m1 = 1.106	1027.68	1024.9	1021.35	1017.13	1558	1580.7	1597.2	1608
m1 = 1.33	1032.73	1029.83	1026.17	1021.87	1574.8	1596.1	1611.3	1621
m1 = 1.552	1037.55	1034.52	1030.77	1026.4	1590.9	1610.8	1624.8	1633.5
m1 = 1.774	1042.19	1039.05	1035.2	1030.74	1606.6	1625.1	1637.8	1645.5
m1 = 1.998	1046.67	1043.4	1039.51	1034.95	1621.7	1638.9	1650.5	1657.1

CC(N)C(=O)O (stereo not drawn) [DL-2-aminopropanoic acid] + O
Conditions	mass density, 288.15 K [kg/m3]	mass density, 298.15 K [kg/m3]	mass density, 308.15 K [kg/m3]	mass density, 318.15 K [kg/m3]	speed of sound, 288.15 K [m/s]	speed of sound, 298.15 K [m/s]	speed of sound, 308.15 K [m/s]	speed of sound, 318.15 K [m/s]
m1 = 0.04994	1000.59	998.501	995.455	991.617	1469.9	1500	1522.8	1539.1
m1 = 0.1499	1003.53	1001.37	998.271	994.396	1476.9	1506.5	1528.8	1544.8
m1 = 0.2597	1006.7	1004.46	1001.3	997.395	1484.5	1513.5	1535.4	1551
m1 = 0.4797	1012.86	1010.48	1007.21	1003.23	1499.3	1527.4	1548.3	1563.2
m1 = 0.6994	1018.78	1016.26	1012.89	1008.84	1513.8	1540.8	1560.9	1575
m1 = 0.9199	1024.51	1021.85	1018.39	1014.26	1528	1553.9	1573.2	1586.5
m1 = 1.138	1029.97	1027.2	1023.64	1019.43	1541.7	1566.6	1585	1597.7
m1 = 1.36	1035.33	1032.43	1028.77	1024.51	1555.1	1579.1	1596.7	1608.7
m1 = 1.577	1040.37	1037.36	1033.63	1029.29	1568	1591	1607.8	1619.2
m1 = 1.799	1045.37	1042.26	1038.42	1034.03	1580.7	1602.7	1618.9	1629.5

CCCC(N)C(=O)O (stereo not drawn) [DL-2-aminopentanoic acid] + O
Conditions	mass density, 288.15 K [kg/m3]	mass density, 298.15 K [kg/m3]	mass density, 308.15 K [kg/m3]	mass density, 318.15 K [kg/m3]	speed of sound, 288.15 K [m/s]	speed of sound, 298.15 K [m/s]	speed of sound, 308.15 K [m/s]	speed of sound, 318.15 K [m/s]
m1 = 0.04497	1000.31	998.222	995.183	991.346	1471.3	1501.2	1523.8	1540
m1 = 0.05999	1000.71	998.611	995.564	991.721	1473	1502.7	1525.1	1541.2
m1 = 0.07998	1001.24	999.126	996.069	992.218	1475.1	1504.6	1526.9	1542.8
m1 = 0.09499	1001.63	999.511	996.447	992.59	1476.7	1506.1	1528.2	1544
m1 = 0.11	1002.03	999.895	996.823	992.961	1478.3	1507.5	1529.6	1545.2
m1 = 0.125	1002.42	1000.28	997.197	993.329	1479.9	1509	1530.9	1546.4
m1 = 0.14	1002.81	1000.66	997.57	993.697	1481.5	1510.4	1532.2	1547.6
m1 = 0.155	1003.2	1001.04	997.943	994.064	1483.1	1511.9	1533.5	1548.8
m1 = 0.17	1003.59	1001.42	998.314	994.429	1484.6	1513.3	1534.8	1550
m1 = 0.185	1003.98	1001.79	998.684	994.793	1486.2	1514.7	1536.2	1551.2
m1 = 0.2	1004.36	1002.17	999.053	995.156	1487.8	1516.1	1537.5	1552.4

NCC(=O)O [2-aminoacetic acid] + O
Conditions	mass density, 288.15 K [kg/m3]	mass density, 298.15 K [kg/m3]	mass density, 308.15 K [kg/m3]	mass density, 318.15 K [kg/m3]	speed of sound, 288.15 K [m/s]	speed of sound, 298.15 K [m/s]	speed of sound, 308.15 K [m/s]	speed of sound, 318.15 K [m/s]
m1 = 0.04998	1000.77	998.679	995.632	991.792	1469.2	1499.4	1522.2	1538.6
m1 = 0.1399	1003.74	1001.58	998.484	994.608	1474.3	1504.2	1526.8	1543
m1 = 0.2276	1006.6	1004.38	1001.24	997.323	1479.2	1508.8	1531.1	1547.1
m1 = 0.4056	1012.27	1009.94	1006.71	1002.72	1488.9	1517.9	1539.7	1555.4
m1 = 0.5835	1017.82	1015.36	1012.04	1007.99	1498.4	1526.8	1548.2	1563.5
m1 = 0.7602	1023.19	1020.62	1017.22	1013.1	1507.6	1535.4	1556.3	1571.3
m1 = 0.9386	1028.48	1025.81	1022.32	1018.13	1516.7	1543.9	1564.4	1579
m1 = 1.117	1033.62	1030.85	1027.28	1023.04	1525.5	1552.2	1572.2	1586.4
m1 = 1.296	1038.69	1035.81	1032.17	1027.84	1534.1	1560.3	1579.8	1593.7
